Test results as given in PubChem BioAssay (NCI).
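Where inhibition never reached the appropriate level, the endpoint shown equals the highest concentration tested. Otherwise, values were interpolated linearly from a five-concentration, 48-hour dose response in 96-well plates. GI50 marks 50% less growth. TGI denotes the concentration required for complete inhibition of growth.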

Test system: A498 renal
Assay: inhibition of tumour cell growth, NCI panel, 48 h

**Q.** How did the GI50 turn out when `COc1ccc(/C=N/NC(=O)Cn2c(-c3ccc(S(C)(=O)=O)cc3)nc3cc(Cl)ccc32)cc1` was run?
**A.** Its GI50 is 0.79 µM.

**Q.** What about the TGI of the same molecule?
**A.** The TGI was 3.65 µM.

**Q.** How did the TGI turn out when `CC1CN1c1c(C(=O)/C=C/c2ccccc2)c(-c2ccccc2)nn(C)c1=O` (configuration not stated) was run?
**A.** The TGI was 32.4 µM.

**Q.** `c1ccc(P(=Nc2ccccc2N=P(c2ccccc2)(c2ccccc2)c2ccccc2)(c2ccccc2)c2ccccc2)cc1` was tested. Which TGI did it give?
**A.** The TGI was 5.56 µM.

**Q.** How did the TGI turn out when `COCCOCOc1ccc(OCOCCOC)c2c1C(=O)c1ccccc1C2=O` was run?
**A.** Its TGI is over 100 µM.

**Q.** Which TGI does the source give for `CCO/C=C1\N=C(c2ccccc2Br)OC1=O` here?
**A.** Its TGI is over 100 µM.

**Q.** With `O=P1(Oc2ccccc2)C(c2ccccc2)C(c2ccccc2)=NN1c1ccccc1` (configuration not stated) as the molecule, how does the TGI read?
**A.** The TGI was 84.6 µM.

**Q.** For `CCOC(=O)C(=O)Nc1cc(Cl)ccc1Cl`, which TGI is on record?
**A.** The TGI was over 100 µM.

**Q.** Which GI50 does the source give for `N#Cc1ccc(N=Cc2c([O-])ccc3ccccc23)cc1.[C-]#[O+].[C-]#[O+].[Ir]` here?
**A.** Its GI50 is 22.5 µM.

**Q.** And the TGI?
**A.** The TGI was 37.5 µM.

**Q.** `[N-]=[N+]=C1C(=O)C2CC3CC(C2)CC1C3` was tested. Which TGI did it give?
**A.** The TGI was over 100 µM.

**Q.** How did the TGI turn out when `COC(=O)CC1NC(=O)C1C1(C)OCCO1` (configuration not stated) was run?
**A.** Its TGI is over 100 µM.

**Q.** `COC(CN1C=C(Sc2ccccc2)CC1)OC` was tested. Which TGI did it give?
**A.** Its TGI is over 100 µM.

**Q.** Which TGI does the source give for `CN(C)CCC(/C=C/c1ccccc1)=N\Nc1ccc(Cl)cc1Cl` here?
**A.** The TGI was 30.5 µM.

**Q.** With `COc1ccc(C=O)c(NC(=O)C(C)C)c1` as the molecule, how does the TGI read?
**A.** Its TGI is over 100 µM.

**Q.** How did the TGI turn out when `Cc1ccc(S(=O)OC2C3CC4CC(C3)CC2C4)cc1` (configuration not stated) was run?
**A.** The TGI was over 100 µM.

**Q.** What does the source list for `COc1ccc2c(c1)OC1=C(C(=O)OC1)C2c1cc(OC)c2c(c1)OCO2` (configuration not stated)?
**A.** GI50: 0.0205 µM; TGI: 0.0923 µM

**Q.** With `CN(C)c1ccc(/C=C2\C=Cc3ccccc32)cc1` as the molecule, how does the TGI read?
**A.** The TGI was over 100 µM.

**Q.** With `COc1cc2nc(NCCCCCNC(=O)c3ccco3)nc(N)c2cc1OC` as the molecule, how does the TGI read?
**A.** The TGI was over 100 µM.

**Q.** With `COC(=O)C(C)(C)N=CN(C)C` as the molecule, how does the TGI read?
**A.** Its TGI is over 100 µM.

**Q.** For `Cc1cc(N(CCC#N)CCC#N)ccc1/C=C1/N=C(c2ccccc2)N(N)C1=O`, which TGI is on record?
**A.** Its TGI is over 100 µM.

**Q.** For `CNS(=O)(=O)NNS(=O)(=O)c1ccc(Cl)cc1`, which TGI is on record?
**A.** Its TGI is over 100 µM.

**Q.** What does the source list for `C=C1CCC2[C@@H](CCC3[C@]2(C)CCC[C@]3(C)C(=O)OC)[C@@H]1CC=O` (some centres not stated)?
**A.** GI50: 87.8 µM; TGI: > 100 µM

**Q.** How did the TGI turn out when `CCCCCCCCCCCCCP(=O)(O)NCC(N)=O` was run?
**A.** The TGI was over 100 µM.

**Q.** With `CN1COc2c(n(C)c(=O)[nH]c2=O)C1` as the molecule, how does the TGI read?
**A.** Its TGI is over 100 µM.

**Q.** Which TGI does the source give for `CC1(C)OCC(C(O)C2OC(C)(C)OC2/C=N\O)O1` (configuration not stated) here?
**A.** The TGI was over 100 µM.

**Q.** For `CCCCCCN(N)C(=O)CC#N`, which TGI is on record?
**A.** Its TGI is over 100 µM.

**Q.** How did the TGI turn out when `O=C(O)/C(Cl)=C(\Cl)C(=O)Nc1ccc(Cl)c(Cl)c1Cl` was run?
**A.** Its TGI is 95.6 µM.

**Q.** How did the TGI turn out when `CC1(C)C2CCC13CS(=O)(=O)N1O[C@]13C(=O)O2` (some centres not stated) was run?
**A.** Its TGI is over 100 µM.

Test system: SF-268 CNS
Assay: inhibition of tumour cell growth, NCI panel, 48 h

**Q.** What does the source list for `COc1ccc(/C=N/NC(=O)Cn2c(-c3ccc(S(C)(=O)=O)cc3)nc3cc(Cl)ccc32)cc1`?
**A.** GI50: 2.76 µM; TGI: > 50 µM

**Q.** How did the TGI turn out when `CC1CN1c1c(C(=O)/C=C/c2ccccc2)c(-c2ccccc2)nn(C)c1=O` (configuration not stated) was run?
**A.** The TGI was 56.2 µM.

**Q.** For `CCOc1nc(N)nc(C)c1N=Nc1ccc(Cl)cc1`, which TGI is on record?
**A.** Its TGI is over 100 µM.

**Q.** With `c1ccc(P(=Nc2ccccc2N=P(c2ccccc2)(c2ccccc2)c2ccccc2)(c2ccccc2)c2ccccc2)cc1` as the molecule, how does the TGI read?
**A.** Its TGI is over 100 µM.

**Q.** How did the TGI turn out when `COCCOCOc1ccc(OCOCCOC)c2c1C(=O)c1ccccc1C2=O` was run?
**A.** The TGI was over 100 µM.

**Q.** `CCO/C=C1\N=C(c2ccccc2Br)OC1=O` was tested. Which TGI did it give?
**A.** The TGI was over 100 µM.

**Q.** For `O=P1(Oc2ccccc2)C(c2ccccc2)C(c2ccccc2)=NN1c1ccccc1` (configuration not stated), which TGI is on record?
**A.** The TGI was 93.6 µM.

**Q.** With `CCOC(=O)C(=O)Nc1cc(Cl)ccc1Cl` as the molecule, how does the TGI read?
**A.** The TGI was over 100 µM.

**Q.** How did the GI50 turn out when `N#Cc1ccc(N=Cc2c([O-])ccc3ccccc23)cc1.[C-]#[O+].[C-]#[O+].[Ir]` was run?
**A.** The GI50 was 14.8 µM.

**Q.** What about the TGI of the same molecule?
**A.** The TGI was 29.2 µM.

**Q.** For `[N-]=[N+]=C1C(=O)C2CC3CC(C2)CC1C3`, which TGI is on record?
**A.** Its TGI is over 100 µM.

**Q.** `COC(=O)CC1NC(=O)C1C1(C)OCCO1` (configuration not stated) was tested. Which TGI did it give?
**A.** The TGI was over 100 µM.

**Q.** With `COC(CN1C=C(Sc2ccccc2)CC1)OC` as the molecule, how does the TGI read?
**A.** Its TGI is over 100 µM.

**Q.** Which TGI does the source give for `CN(C)CCC(/C=C/c1ccccc1)=N\Nc1ccc(Cl)cc1Cl` here?
**A.** The TGI was 28.2 µM.

**Q.** For `COc1ccc(C=O)c(NC(=O)C(C)C)c1`, which TGI is on record?
**A.** Its TGI is over 100 µM.

**Q.** How did the TGI turn out when `Cc1cc2c(c(C(=O)O)c1C)-c1cccc(F)c1C2=O` was run?
**A.** The TGI was over 100 µM.

**Q.** For `Cc1ccc(S(=O)OC2C3CC4CC(C3)CC2C4)cc1` (configuration not stated), which TGI is on record?
**A.** The TGI was over 100 µM.

**Q.** For `COc1ccc2c(c1)OC1=C(C(=O)OC1)C2c1cc(OC)c2c(c1)OCO2` (configuration not stated), which GI50 is on record?
**A.** The GI50 was 0.0795 µM.

**Q.** And the TGI?
**A.** Its TGI is over 100 µM.

**Q.** `CN(C)c1ccc(/C=C2\C=Cc3ccccc32)cc1` was tested. Which TGI did it give?
**A.** The TGI was over 100 µM.

**Q.** With `COc1cc2nc(NCCCCCNC(=O)c3ccco3)nc(N)c2cc1OC` as the molecule, how does the TGI read?
**A.** Its TGI is over 100 µM.

**Q.** How did the TGI turn out when `C/C=C(\C)c1cc(O)c(C)c2c1Oc1cc(O)c(Cl)c(C)c1C(=O)O2` was run?
**A.** The TGI was 66 µM.

**Q.** Which TGI does the source give for `COC(=O)C(C)(C)N=CN(C)C` here?
**A.** Its TGI is over 100 µM.

**Q.** Which GI50 does the source give for `C[C@@H]1O[C@@H](OC[C@H]2O[C@@H](OCCc3ccc(O)c(O)c3)[C@H](O)[C@@H](O)[C@@H]2OC(=O)/C=C/c2ccc(O)c(O)c2)[C@H](O)[C@H](O)[C@H]1O` here?
**A.** The GI50 was over 100 µM.

**Q.** What about the TGI of the same molecule?
**A.** Its TGI is over 100 µM.

**Q.** Which TGI does the source give for `Cc1cc(N(CCC#N)CCC#N)ccc1/C=C1/N=C(c2ccccc2)N(N)C1=O` here?
**A.** The TGI was over 100 µM.

**Q.** For `CCOC1=C2N=C(Cc3ccccc3F)N=C2C(=O)c2ccccc21`, which TGI is on record?
**A.** Its TGI is over 100 µM.

**Q.** With `CNS(=O)(=O)NNS(=O)(=O)c1ccc(Cl)cc1` as the molecule, how does the TGI read?
**A.** Its TGI is over 100 µM.

**Q.** `C=C1CCC2[C@@H](CCC3[C@]2(C)CCC[C@]3(C)C(=O)OC)[C@@H]1CC=O` (some centres not stated) was tested. Which TGI did it give?
**A.** Its TGI is over 100 µM.

**Q.** With `CCCCCCCCCCCCCP(=O)(O)NCC(N)=O` as the molecule, how does the TGI read?
**A.** Its TGI is over 100 µM.

**Q.** `CN1COc2c(n(C)c(=O)[nH]c2=O)C1` was tested. Which TGI did it give?
**A.** The TGI was over 100 µM.

**Q.** For `CC1(C)OCC(C(O)C2OC(C)(C)OC2/C=N\O)O1` (configuration not stated), which TGI is on record?
**A.** Its TGI is over 100 µM.

**Q.** How did the TGI turn out when `CCCCCCN(N)C(=O)CC#N` was run?
**A.** The TGI was over 100 µM.

**Q.** Which TGI does the source give for `O=C(O)/C(Cl)=C(\Cl)C(=O)Nc1ccc(Cl)c(Cl)c1Cl` here?
**A.** The TGI was 42.8 µM.

**Q.** `COc1ccc(C(Cl)=C(c2ccc(OCCN(C)C)cc2)c2ccc(OCCN(C)C)cc2)cc1` was tested. Which TGI did it give?
**A.** Its TGI is 4.71 µM.

**Q.** For `CC1(C)C2CCC13CS(=O)(=O)N1O[C@]13C(=O)O2` (some centres not stated), which TGI is on record?
**A.** Its TGI is over 100 µM.

Test system: RXF 393 renal
Assay: inhibition of tumour cell growth, NCI panel, 48 h

**Q.** How did the TGI turn out when `CC1CN1c1c(C(=O)/C=C/c2ccccc2)c(-c2ccccc2)nn(C)c1=O` (configuration not stated) was run?
**A.** Its TGI is 41.4 µM.

**Q.** How did the TGI turn out when `CCOc1nc(N)nc(C)c1N=Nc1ccc(Cl)cc1` was run?
**A.** Its TGI is over 100 µM.

**Q.** With `c1ccc(P(=Nc2ccccc2N=P(c2ccccc2)(c2ccccc2)c2ccccc2)(c2ccccc2)c2ccccc2)cc1` as the molecule, how does the TGI read?
**A.** The TGI was 9 µM.

**Q.** How did the TGI turn out when `COCCOCOc1ccc(OCOCCOC)c2c1C(=O)c1ccccc1C2=O` was run?
**A.** Its TGI is over 100 µM.

**Q.** Which TGI does the source give for `CCO/C=C1\N=C(c2ccccc2Br)OC1=O` here?
**A.** The TGI was over 100 µM.

**Q.** `O=P1(Oc2ccccc2)C(c2ccccc2)C(c2ccccc2)=NN1c1ccccc1` (configuration not stated) was tested. Which TGI did it give?
**A.** Its TGI is 40.7 µM.

**Q.** For `[N-]=[N+]=C1C(=O)C2CC3CC(C2)CC1C3`, which TGI is on record?
**A.** Its TGI is over 100 µM.

**Q.** Which TGI does the source give for `COC(=O)CC1NC(=O)C1C1(C)OCCO1` (configuration not stated) here?
**A.** Its TGI is over 100 µM.

**Q.** For `COC(CN1C=C(Sc2ccccc2)CC1)OC`, which TGI is on record?
**A.** The TGI was 66.6 µM.
